How the values were obtained:
V599E Raf = V599E Raf (Homo sapiens, UniProt P15056, V600E); assay: Biochemical FRET assay, mutant Raf (phosphorylation of MEK); conditions: 0.125 nM V599E Raf, 100 nM biotin-MEK, 25 μM ATP, read-out: Raf (mut) inhibition
Procedure: (1) Biochemical FRET Assay […]
Inhibitors were diluted 4-fold in 100% DMSO and added to a final concentration of 10 μM to 40 μM to a solution containing 100 nM biotin-MEK, 0.125 nM V599E Raf in 50 mM HEPES, pH 7.4, 60 mM NaCl, 3 mM MgCl2, 2 mM DTT, 0.25 mM MnCl2, 0.01% BSA, and 0.01% Tween-20 and incubated for 20 minutes at room temperature. The kinase reaction was started by the addition of 25 μM ATP to a final volume of 45 μl and allowed to progress for 60 minutes. The reaction was stopped with 15 mM EDTA and 20 nM Streptavidin-APC, 2.5 nM Polyclonal anti p-MEK1/2 (Ser217/221), 2.5 nM Eu-labeled anti-rabbit IgG were added in Lance detection buffer and 5% Superblock in PBS for a final volume of 100 μl. The detection reaction was incubated for 90 minutes at room temperature and then read on an Analyst plate reader using standard TR-FRET (time resolved fluorescence resonance energy transfer) settings for Eu and APC.
Compounds having an activity designated as “A” provided an IC50≦100 nM; compounds having an activity designated as “B” provided an IC50 of 100-1000 nM; and compounds having an activity designated as “C” provided an IC50 of 1000-10,000 nM.

[1] = system: phospho-ERK in melanoma derived WM-266-4 cells; assay: Mechanistic cellular assay for Raf kinase activity (phospho-ERK, Bio-Plex); format: cell-based; conditions: Homo sapiens, treated 1-2 hr at 37° C., serum free medium, read-out: pERK EC50
How it was run: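 WM-266-4 melanoma cells (wild-type/V600D BRaf) grown overnight in 10% FBS RPMI, then treated 1–2 h at 37 °C in serum-free RPMI with eight 3-fold dilutions of compound (from 5 mM DMSO stock, 1000× dilution). Lysate phospho-ERK1,2 quantified by Bio-Plex bead immunoassay.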

V599E Raf, sequence (P15056 whole entry V600E): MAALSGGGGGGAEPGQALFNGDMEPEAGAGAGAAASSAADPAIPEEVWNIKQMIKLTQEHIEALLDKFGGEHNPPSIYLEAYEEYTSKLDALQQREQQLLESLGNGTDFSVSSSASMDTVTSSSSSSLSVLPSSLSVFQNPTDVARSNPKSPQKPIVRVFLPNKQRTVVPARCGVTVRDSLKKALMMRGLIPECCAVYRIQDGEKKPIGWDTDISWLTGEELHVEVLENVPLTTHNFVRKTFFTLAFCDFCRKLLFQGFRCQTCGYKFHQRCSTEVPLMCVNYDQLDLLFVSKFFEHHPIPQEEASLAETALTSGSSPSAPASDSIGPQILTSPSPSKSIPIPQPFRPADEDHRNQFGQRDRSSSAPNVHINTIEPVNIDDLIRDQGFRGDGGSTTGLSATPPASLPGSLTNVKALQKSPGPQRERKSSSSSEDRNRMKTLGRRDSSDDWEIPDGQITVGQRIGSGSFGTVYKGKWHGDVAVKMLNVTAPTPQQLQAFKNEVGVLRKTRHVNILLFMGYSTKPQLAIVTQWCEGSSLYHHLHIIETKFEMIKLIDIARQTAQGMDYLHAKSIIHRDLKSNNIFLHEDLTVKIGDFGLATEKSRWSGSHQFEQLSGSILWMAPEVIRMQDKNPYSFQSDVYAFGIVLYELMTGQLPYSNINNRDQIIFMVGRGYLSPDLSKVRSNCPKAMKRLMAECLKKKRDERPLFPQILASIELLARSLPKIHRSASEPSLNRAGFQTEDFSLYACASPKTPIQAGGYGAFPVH

Structure (SMILES) | IC50 (V599E Raf) | EC50 [1]
C[C@@H](NC(=O)c1ccc2sccc2c1)c1ncc(C(=O)Nc2cc(C(F)(F)F)c(Cl)cn2)s1 [Example 67] | 100 to 1000 nM | 1000 to 10000 nM
CC(NC(=O)c1cc2c(cn1)ncn2C1CCC1)c1cnc(Nc2ccc(C(F)(F)F)nc2)s1 (stereo not shown) [Example 292] | ≤ 100 nM | ≤ 100 nM
CC(NC(=O)c1cc2nc[nH]c2cn1)c1ncc(C(=O)Nc2cc(C(F)(F)F)c(Cl)cn2)s1 (stereo not shown) [Example 77] | ≤ 100 nM | ≤ 100 nM
COc1cc(C(F)(F)F)ccc1Nc1cnc(C(C)NC(=O)c2cc3c(cn2)ncn3C)cn1 (stereo not shown) [Example 265b] | ≤ 100 nM | 100 to 1000 nM
CC(NC(=O)c1cc2c(cn1)nc(N)n2C)c1cnc(Nc2cnc(C(C)(C)C)nc2)s1 (stereo not shown) [Example 287] | ≤ 100 nM | ≤ 100 nM
C[C@@H]1[C@]2(C)CC[C@@]1(C)[C@@H](NC(=O)c1cc([C@@H](C)NC(=O)c3cnn4ccccc34)no1)C2 [Example 215] | 1000 to 10000 nM | 
CCn1ncc(C(=O)N[C@H](C)c2ncc(C(=O)Nc3cc(C(F)(F)F)c(Cl)cn3)s2)c1C [Example 126] | ≤ 100 nM | ≤ 100 nM
CC(NC(=O)c1cc2ncn(C)c2cn1)c1cnc(Nc2ccc(C(F)(F)F)cc2)s1 (stereo not shown) [Example 1] | ≤ 100 nM | 1000 to 10000 nM
C[C@H](NC(=O)c1cc2c(cn1)ncn2C)c1cnc(Nc2ccc(C(F)(F)F)nc2)s1 (single isomer, unassigned) [Example 267] | ≤ 100 nM | ≤ 100 nM
C[C@@H](NC(=O)c1cnn(C)c1CN1CCCC1)c1ncc(C(=O)Nc2cc(C(F)(F)F)c(Cl)cn2)s1 [Example 132] | 100 to 1000 nM | 100 to 1000 nM
C[C@@H](NC(=O)c1cn2c(Br)cnc2cn1)c1cnc(Nc2ccc(C(F)(F)F)cc2)s1 [Example 298] | ≤ 100 nM | ≤ 100 nM
C[C@@H](NC(=O)c1cccc(Br)n1)c1ncc(C(=O)Nc2cc(C(F)(F)F)c(Cl)cn2)s1 [Example 91] | 100 to 1000 nM | 1000 to 10000 nM
C[C@@H](NC(=O)c1ccc2[nH]ccc2c1)c1ncc(C(=O)Nc2cc(C(F)(F)F)c(Cl)cn2)s1 [Example 56] | ≤ 100 nM | 100 to 1000 nM
CC(NC(=O)c1cn2ccnc2cn1)c1cnc(Nc2ccc(C(F)(F)F)cc2)s1 (stereo not shown) [Example 296] | ≤ 100 nM | 100 to 1000 nM
C[C@@H](NC(=O)c1cnn2ccccc12)c1cc(C(=O)Nc2nc3cc(Cl)ccc3o2)on1 [Example 212] | ≤ 100 nM | 1000 to 10000 nM
CC(=O)N1CC(n2cnc3cnc(C(=O)N[C@H](C)c4cnc(Nc5ccc(C(F)(F)F)cc5)s4)cc32)C1 [Example 347] | ≤ 100 nM | 100 to 1000 nM
CC(NC(=O)c1ccc2ncn(C)c2c1)c1cnc(Nc2ccc(C(F)(F)F)cc2)s1 (stereo not shown) [Example 76] | ≤ 100 nM | 1000 to 10000 nM
C[C@@H](NC(=O)c1cnn2ccccc12)c1cc(C(=O)NC2C[C@@H]3CC[C@H]2C3)on1 (stereo partly shown) [Example 213] | 1000 to 10000 nM | 
Cc1cc2nc(NC(=O)c3cc([C@@H](C)NC(=O)c4cnn5ccccc45)no3)[nH]c2cc1C [Example 219] | 100 to 1000 nM | 100 to 1000 nM
CC(NC(=O)c1cc2c(cn1)ncn2C)c1cnc(Nc2ccc(C(F)(F)F)cc2)cn1 (stereo not shown) [Example 35] | ≤ 100 nM | ≤ 100 nM

Structure (SMILES) | IC50 (V599E Raf) | EC50 [1]
Cc1nn(C)c(C)c1C(=O)N[C@H](C)c1ncc(C(=O)Nc2cc(C(F)(F)F)c(Cl)cn2)s1 [Example 110] | ≤ 100 nM | 1000 to 10000 nM
CC(NC(=O)c1cc2c(cn1)ncn2C)c1cnc(Nc2cc(C#N)cc(C(C)(C)C)c2)s1 (stereo not shown) [Example 350] | ≤ 100 nM | 1000 to 10000 nM
C[C@@H](NC(=O)c1ccc2ncccc2c1)c1ncc(C(=O)Nc2cc(C(F)(F)F)c(Cl)cn2)s1 [Example 58] | ≤ 100 nM | ≤ 100 nM
COCCOc1cc(C(F)(F)F)ccc1Nc1ncc(C(C)NC(=O)c2cc3c(cn2)ncn3C)s1 (stereo not shown) [Example 282] | ≤ 100 nM | 100 to 1000 nM
CC(NC(=O)c1cnc2nccn2c1)c1cnc(Nc2ccc(C(F)(F)F)cc2)s1 (stereo not shown) [Example 309] | 100 to 1000 nM | 1000 to 10000 nM
C[C@@H](NC(=O)c1cc2c(cn1)ncn2C1CN(CCO)C1)c1cnc(Nc2ccc(C(F)(F)F)cc2)s1 [Example 348] | ≤ 100 nM | ≤ 100 nM
Cc1ccc(NC(=O)c2cc(C(C)(C)NC(=O)c3cnn4ccccc34)on2)cc1C(F)(F)F [Example 230] | 100 to 1000 nM | 
C[C@@H](NC(=O)c1cnn2ccccc12)c1cc(C(=O)Nc2nc3ccc(F)cc3s2)on1 [Example 210] | 100 to 1000 nM | 
C[C@@H](NC(=O)c1cnn2ccccc12)c1cc(C(=O)Nc2nc(C(C)(C)C)ncc2N)no1 [Example 228] | 100 to 1000 nM | 
C[C@@H](NC(=O)c1cnn2ccccc12)c1cc(C(=O)NC2CC(C)(C)NC(C)(C)C2)on1 [Example 216] | 1000 to 10000 nM | 
CC(NC(=O)c1cc2c(cn1)ncn2C)c1cnc(Nc2cccc(C(F)(F)F)c2)s1 (stereo not shown) [Example 178] |  | 100 to 1000 nM
CC(NC(=O)c1cccc(CN2CCOCC2)c1)c1ncc(C(=O)Nc2cc(C(F)(F)F)c(Cl)cn2)s1 (stereo not shown) [Example 46] |  | 1000 to 10000 nM
CC(C)Cn1cnc2cnc(C(=O)NC(C)c3cnc(Nc4ccc(C(F)(F)F)cc4)cn3)cc21 (stereo not shown) [Example 79] |  | 100 to 1000 nM
C[C@@H](NC(=O)c1cc2c(cn1)ncn2C)c1cnc(Nc2ccc(Cl)c(C(F)(F)F)c2)cn1 (single isomer, unassigned) [Example 236] |  | ≤ 100 nM
CCc1nc2cnc(C(=O)NC(C)c3ncc(Nc4ccc(C(F)(F)F)cc4)s3)cn2c1NC(C)(C)CC(C)(C)C (stereo not shown) [Example 306] |  | 1000 to 10000 nM
CC(NC(=O)c1cnn2cc(-c3ccnc(F)c3)ccc12)c1nc(C(=O)Nc2cc(C(F)(F)F)c(Cl)cn2)cs1 (stereo not shown) [Example 326] |  | 100 to 1000 nM
CCn1c(C(=O)N[C@H](C)c2ncc(C(=O)Nc3cc(C(F)(F)F)c(Cl)cn3)s2)cnc1N [Example 149] |  | ≤ 100 nM
CC(NC(=O)c1cccc(-n2ccnc2)c1)c1ncc(C(=O)Nc2cc(C(F)(F)F)c(Cl)cn2)s1 (stereo not shown) [Example 48] |  | 100 to 1000 nM
C[C@@H](NC(=O)c1cnc2n1CCNC2)c1ncc(C(=O)Nc2cc(C(F)(F)F)c(Cl)cn2)s1 [Example 315] |  | 100 to 1000 nM
CC(NC(=O)c1cc2c(cn1)ncn2C)c1cnc(Nc2ccc(Cl)cc2)s1 (stereo not shown) [Example 249] |  | 100 to 1000 nM

Structure (SMILES) | IC50 (V599E Raf) | EC50 [1]
COc1cc(-c2ccc3c(C(=O)NC(C)c4ncc(C(=O)Nc5cc(C(F)(F)F)c(Cl)cn5)s4)cnn3c2)ccn1 (stereo not shown) [Example 330] |  | 100 to 1000 nM
CC(NC(=O)c1cc2c(cn1)ncn2C)c1cnc(Nc2ccc(Cl)c(C(F)(F)F)c2)cn1 (stereo not shown) [Example 232] |  | ≤ 100 nM
C[C@@H](NC(=O)c1cnc(N)n1C)c1ncc(C(=O)Nc2cc(C(F)(F)F)c(Cl)cn2)s1 [Example 147] |  | ≤ 100 nM
C[C@@H](NC(=O)c1cnc2n1CCC2)c1ncc(C(=O)Nc2cc(C(F)(F)F)c(Cl)cn2)s1 [Example 336] |  | ≤ 100 nM
C[C@@H](NC(=O)c1cnc2n1CCCCN2)c1ncc(C(=O)Nc2cc(C(F)(F)F)c(Cl)cn2)s1 [Example 171] |  | ≤ 100 nM
Cc1ncc(C(=O)N[C@H](C)c2ncc(C(=O)Nc3cc(C(F)(F)F)c(Cl)cn3)s2)n1-c1cccnc1 [Example 162] |  | ≤ 100 nM
CC(NC(=O)c1cccc(N2CCOCC2)n1)c1ncc(C(=O)Nc2cc(C(F)(F)F)c(Cl)cn2)s1 (stereo not shown) [Example 88] |  | 100 to 1000 nM
CC(NC(=O)c1cc2cnn(C)c2cn1)c1cnc(Nc2ccc(C(F)(F)F)cc2)s1 (stereo not shown) [Example 204] |  | 1000 to 10000 nM
C[C@@H](NC(=O)c1cnc2n1CCCCC2)c1ncc(C(=O)Nc2cc(C(F)(F)F)c(Cl)cn2)s1 [Example 168] |  | ≤ 100 nM
CC(NC(=O)c1cn2c(N)cnc2cn1)c1ncc(Nc2ccc(C(F)(F)F)cc2)s1 (stereo not shown) [Example 302] |  | 100 to 1000 nM
CC(NC(=O)c1cc2c(cn1)ncn2C(C)C)c1cnc(Nc2ccc(C(F)(F)F)cc2)s1 (stereo not shown) [Example 12] |  | ≤ 100 nM
CCN1CC(n2cnc3cnc(C(=O)NC(C)c4cnc(Nc5ccc(Cl)c(C(F)(F)F)c5)cn4)cc32)C1 (stereo not shown) [Example 235] |  | 100 to 1000 nM
CC(NC(=O)c1cc2c(cn1)ncn2C1CC1)c1cnc(Nc2ccc(C(F)(F)F)cc2)s1 (stereo not shown) [Example 19] |  | ≤ 100 nM
C[C@H](NC(=O)c1cc2c(cn1)ncn2C)c1cnc(Nc2ccc(C(F)(F)F)cc2)cn1 (single isomer, unassigned) [Example 36] |  | 1000 to 10000 nM
CCn1c(C(=O)N[C@H](C)c2ncc(C(=O)Nc3cc(C(F)(F)F)c(Cl)cn3)s2)cnc1C [Example 151] |  | ≤ 100 nM
C[C@@H](NC(=O)c1ccc2nc(N)sc2c1)c1ncc(C(=O)Nc2cc(C(F)(F)F)c(Cl)cn2)s1 [Example 59] |  | ≤ 100 nM
C[C@@H](NC(=O)c1ccc2ncsc2c1)c1ncc(C(=O)Nc2cc(C(F)(F)F)c(Cl)cn2)s1 [Example 61] |  | ≤ 100 nM
Cc1nc2cnc(C(=O)NC(C)c3cnc(Nc4ccc(C(F)(F)F)cc4)s3)cc2n1C (stereo not shown) [Example 10] |  | 100 to 1000 nM

— patent US20120040951A1, “HETEROARYL COMPOUNDS USEFUL AS RAF KINASE INHIBITORS” (priority 2008, published 2012)
